In patent US4510307A, “6-Quinazolinesulfonyl derivatives and process for preparation thereof” (Asahi Kasei Kogyo Kabushiki Kaisha, priority 1980, dated 1985):

Tested on: mesenteric artery
Assay: Relaxation of Mesenteric Artery (isolated rabbit mesenteric artery contracted with KCl)
Settings: Oryctolagus cuniculus, concentration for 50% relaxation, KCl 15~20 mM contraction, read-out: Relaxation of Mesenteric Artery ED50
Method: When, for example, 1-[4-(N-methyl-N-cyclohexylamino)-6-quinazolinesulfonyl]-4-(2-ethoxy-2-phenylethyl)piperazine was added and a complete relaxation was designated 100%, the concentration which could bring about a relaxation of 50%, i.e., ED50 was 0.8 μM.
After a home bred rabbit of a Japanese species weighing about 3 Kg was subjected to bloodletting, resulting in death and then to abdominal incision, the mesenteric artery was taken out, cut into helicoids of 2 mm×25 mm and suspended in a 20 ml organ bath filled with a Krebs-Henseleit solution into which a mixed gas of 95% by volume of O2 and 5% by volume of CO2 was introduced and one end of the artery was connected with an isometric transducer. When a load of 1.5 g was applied to the artery, the contraction and the relaxation of the artery was recorded as a weight on the transducer (a product of Nippon Koden K.K., Japan, "FD Pickup TB-912T"). The relaxation of the mesenteric artery was observed by adding the 6-quinazolinesulfonyl derivatives and their pharmaceutically acceptable acid addition salts to the mesenteric artery at the condition of about one half of the maxinum contraction with KCl at a KCl concentrantion of 15~20 mM. When the complete relaxation of the mesenteric artery was designated 100%, the concentration of the 6-quinazolinesulfonyl derivatives and their pharmaceutically acceptable acid addition salts which brought about a relaxation of 50% is shown in Table 6.

In the case of CCOC(CN1CCN(S(=O)(=O)c2ccc3ncnc(N)c3c2)CC1)c1ccccc1 (centres unmarked) [Compound (1), 1-(4-amino-6-quinazolinesulfonyl)-4-(2-ethoxy-2-phenylethyl)piperazine], the EC50 is reported as 9.8 µM.
Compound CCOC(CN1CCN(S(=O)(=O)c2ccc3ncnc(N(C)C)c3c2)CC1)c1ccccc1 (centres unmarked) [Compound (2), 1-(4-dimethylamino-6-quinazolinesulfonyl)-4-(2-ethoxy-2-phenylethyl)-piperazine] has an EC50 of 4.5 µM.
In the case of CCOC(CN1CCN(S(=O)(=O)c2ccc3ncnc(N(CC)CC)c3c2)CC1)c1ccccc1 (centres unmarked) [Compound (3), 1-(4-diethylamino-6-quinazolinesulfonyl)-4-(2-ethoxy-2-phenylethyl)-piperazine], the EC50 is reported as 5 µM.
COC(CN1CCN(S(=O)(=O)c2ccc3ncnc(N4CCCCC4)c3c2)CC1)c1ccccc1 (centres unmarked) [Compound (5), 1-(4-piperidino-6-quinazolinesulfonyl)-4-(2-methoxy-2-phenylethyl)-piperazine] gave an EC50 of 5.8 µM.
CC(C)OC(CN1CCN(S(=O)(=O)c2ccc3ncnc(N4CCCCC4)c3c2)CC1)c1ccccc1 (centres unmarked) [Compound (7), 1-(4-piperidino-6-quinazolinesulfonyl)-4-(2-isopropoxy-2-phenylethyl)-piperazine] was tested, and the EC50 was 2.2 µM.
Compound CC(C)COC(CN1CCN(S(=O)(=O)c2ccc3ncnc(N4CCCCC4)c3c2)CC1)c1ccccc1 (centres unmarked) [Compound (8), 1-(4-piperidino-6-quinazolinesulfonyl)-4-(2-isobutoxy-2-phenylethyl)-piperazine] has an EC50 of 10.7 µM.
CCOC(CN1CCN(S(=O)(=O)c2ccc3ncnc(N4CCOCC4)c3c2)CC1)c1ccccc1 (centres unmarked) [Compound (14), 1-(4-morpholino-6-quinazolinesulfonyl)-4-(2-ethoxy-2-phenylethyl)-piperazine] was tested, and the EC50 was 9.5 µM.
Compound CCOC(CN1CCN(S(=O)(=O)c2ccc3ncnc(NC4CCCCC4)c3c2)CC1)c1ccccc1 (centres unmarked) [Compound (15), 1-(4-cyclohexylamino-6-quinazolinesulfonyl)-4-(2-ethoxy-2-phenylethyl)-piperazine] has an EC50 of 1.6 µM.
CCOC(CN1CCN(S(=O)(=O)c2ccc3ncnc(Nc4ccccc4)c3c2)CC1)c1ccccc1 (centres unmarked) [Compound (16), 1-(4-anilino-6-quinazolinesulfonyl)-4-(2-ethoxy-2-phenylethyl)piperazine] showed an EC50 of 2.7 µM.
In the case of CCOC(CN1CCN(S(=O)(=O)c2ccc3ncnc(NCc4ccccc4)c3c2)CC1)c1ccccc1 (centres unmarked) [Compound (17), 1-(4-benzylamino-6-quinazolinesulfonyl)-4-(2-ethoxy-2-phenylethyl)-4-(2-ethoxy-2-phenylethyl)piperazine], the EC50 is reported as 3.2 µM.
CCOC(CN1CCN(S(=O)(=O)c2ccc3ncnc(N(C)C4CCCC4)c3c2)CC1)c1ccccc1 (centres unmarked) [Compound (18), 1-[4-(N-methyl-N-cyclopentylamino)-6-quinazolinesulfonyl]-4-(2-ethoxy-2-phenylethyl)piperazine] gave an EC50 of 1.4 µM.
In the case of CCOC(CN1CCN(S(=O)(=O)c2ccc3ncnc(N(C)C4CCCCCC4)c3c2)CC1)c1ccccc1 (centres unmarked) [Compound (20), 1-[4-(N-methyl-N-cycloheptylamino)-6-quinazolinesulfonyl]-4-(2-ethoxy-2-phenylethyl)piperazine], the EC50 is reported as 3.7 µM.
For CCOC(CN1CCN(S(=O)(=O)c2ccc3ncnc(N(CC(C)C)C4CCCCC4)c3c2)CC1)c1ccccc1 (centres unmarked) [Compound (22), 1-[4-(N-isobutyl-N-cyclohexylamino)-6-quinazolinesulfonyl]-4-(2-ethoxy-2-phenylethyl)piperazine], the EC50 was 2.5 µM.
For COC(CN1CCN(S(=O)(=O)c2ccc3ncnc(N(C)C4CCCCC4)c3c2)CC1)c1ccccc1 (centres unmarked) [Compound (26), 1-[4-(N-methyl-N-cyclohexylamino)-6-quinazolinesulfonyl]-4-(2-methoxy-2-phenylethyl)piperazine], the EC50 was 1.4 µM.
CC(C)OC(CN1CCN(S(=O)(=O)c2ccc3ncnc(N(C)C4CCCCC4)c3c2)CC1)c1ccccc1 (centres unmarked) [Compound (27), 1-[4-(N-methyl-N-cyclohexylamino)-6-quinazolinesulfonyl]-4-(2-isopropoxy-2-phenylethyl)piperazine] was tested, and the EC50 was 0.9 µM.
CC(C)COC(CN1CCN(S(=O)(=O)c2ccc3ncnc(N(C)C4CCCCC4)c3c2)CC1)c1ccccc1 (centres unmarked) [Compound (28), 1-[4-(N-methyl-N-cyclohexylamino)-6-quinazolinesulfonyl]-4-(2-isobutoxy-2-phenylethyl)piperazine] gave an EC50 of 1.3 µM.
NCCNS(=O)(=O)c1ccc2ncnc(N3CCCCC3)c2c1 [Compound (29), N-(2-aminoethyl)-4-piperidino-6-quinazolinesulfonamide] was tested, and the EC50 was 33 µM.
In the case of NCCCNS(=O)(=O)c1ccc2ncnc(N3CCCCC3)c2c1 [Compound (30), N-(3-aminopropyl)-4-piperidino-6-quinazolinesulfonamide], the EC50 is reported as 30 µM.
NCCCCCCCCCCNS(=O)(=O)c1ccc2ncnc(N3CCCCC3)c2c1 [Compound (33), N-(10-aminodecyl)-4-piperidino-6-quinazolinesulfonamide] was tested, and the EC50 was 34 µM.
With NCCCCNS(=O)(=O)c1ccc2ncnc(N3CCCC3)c2c1 [Compound (34), N-(4-aminobutyl)-4-(1-pyrrolidinyl)-6-quinazolinesulfonamide] the EC50 was 27 µM.
CN(C)c1ncnc2ccc(S(=O)(=O)NCCCCN)cc12 [Compound (35), N-(4-aminobutyl)-4-dimethylamino-6-quinazolinesulfonamide] was tested, and the EC50 was 54 µM.
With CCN(CC)c1ncnc2ccc(S(=O)(=O)NCCCCN)cc12 [Compound (36), N-(4-aminobutyl)-4-diethylamino-6-quinazolinesulfonamide] the EC50 was 50 µM.
CCCCCCN(CCCCCC)c1ncnc2ccc(S(=O)(=O)NCCCCN)cc12 [Compound (38), N-(4-aminobutyl)-4-dihexylamino-6-quinazolinesulfonamide] was tested, and the EC50 was 12 µM.
